This is an account of results in article PMC2650736 (Drug metabolism and disposition: the biological fate of …, 2008).

Where two headings read alike, the source gives them in different places.

The nature of data set [1]: Midazolam absorptive permeability in Caco-2 cell monolayers. The class given is in vitro ADME, human. As to conditions: human, apical to basolateral, midazolam 3 μM.
Another data set relates to Caco-2 cell monolayers. The description is as above. In kind it is in vitro ADME, human.
Data set [2] is classed as in vivo, human. As to conditions: for Cmax: read-out: Cmax, Geometric Mean (CV %).
Where [3] appears, read: CBJ, single oral 5 mg midazolam.
Where [4] appears, read: water, single oral 5 mg midazolam.

As for `Cc1ncc2n1-c1ccc(Cl)cc1C(c1ccccc1F)=NC2` [midazolam], the Papp A→B at 3 μM in data set [1] (Caco-2, Papp, acidic pH (5.5)) amounted to 21.9 ± 3.3 ×10⁻⁶ cm/s. The same compound came in with a Papp A→B at 3 μM in data set [1] (Caco-2, pH 7.4, Papp, control (plain incubation medium, pH 7.4)) of 19.4 ± 1.8 ×10⁻⁶ cm/s. Moreover, the Papp A→B at 3 μM in data set [1] (Caco-2, pH 7.4, Papp, high glucose (50 g/L, pH 7.4)) amounted to 18.9 ± 2.8 ×10⁻⁶ cm/s. The “total amount of midazolam recovered from apical and basolateral chambers” value in the data set with Caco-2 cell monolayers (all time points, all conditions) is recorded as ≥ 80 % of the initial amount added to the apical chamber. The “amount of midazolam recovered from cell scrapings” value in the data set on Caco-2 cell monolayers (end of 4-hour experiment, all four conditions) is 7−9 % of the initial amount added to the apical chamber. Also, in data set [2] (setting [3]), the “CI/F, Geometric Mean (CV %)” value is reported as 54 (30) L/h and the “t1/2 (terminal half-life), Geometric Mean (CV %)” value is recorded as 2.9 (25) h. The half-life in data set [2] (human, plasma, po, 5 mg) is 2.9 h. In addition, in data set [2] (single oral 5 mg midazolam), the “AUC0-∞, CBJ / Water Ratio [90% CI]” value is 1.33 [1.17−1.50]; the “AUClast, CBJ / Water Ratio [90% CI]” value is 1.31 [1.18−1.46]; the “CI/F, CBJ / Water Ratio [90% CI]” value was 0.75 [0.67−0.85]; the “Cmax, CBJ / Water Ratio [90% CI]” value was 0.56 [0.49−0.64]. The “t1/2, CBJ / Water Ratio [90% CI]” value in data set [2] (single oral 5 mg midazolam) was 1.01 [0.86−1.19]. The “CI/F, Geometric Mean (CV %)” value in data set [2] (setting [4]) is listed as 71 (33) L/h.
As to `OCc1ncc2n1-c1ccc(Cl)cc1C(c1ccccc1F)=NC2` [1'-Hydroxymidazolam, 1'-hydroxymidazolam], the “tmax [median (range)]” value in data set [2] (CBJ (3 × 240 ml sweetened double-strength juice E), single oral 5 mg midazolam) was 2.0 (1.0−6.0) h. For the same compound, in data set [2] (setting [3]), the “AUC0-∞, Geometric Mean (CV %)” value is reported as 62 (25) nM●h; the “AUClast, Geometric Mean (CV %)” value is given as 55 (23) nM●h; the “t1/2 (terminal half-life), Geometric Mean (CV %)” value was 3.3 (19) h; the Cmax was determined as 10 nM. In addition, in data set [2] (setting [4]), the Cmax was 33 nM; the “AUC0-∞, Geometric Mean (CV %)” value is 74 (37) nM●h; the “AUClast, Geometric Mean (CV %)” value is 69 (35) nM●h; the “t1/2 (terminal half-life), Geometric Mean (CV %)” value was 3.2 (35) h. Moreover, in data set [2] (single oral 5 mg midazolam), the “AUC0-∞, CBJ / Water Ratio [90% CI]” value was 0.84 [0.77−0.92]; the “AUClast, CBJ / Water Ratio [90% CI]” value was 0.80 [0.73−0.88]; the “Cmax, CBJ / Water Ratio [90% CI]” value is 0.32 [0.27−0.38]; the “t1/2, CBJ / Water Ratio [90% CI]” value is 1.04 [0.89−1.20]. For the same compound, the “tmax [median (range)]” value in data set [2] (water, single oral 5 mg midazolam, 16 healthy volunteers) is 0.5 (0.25−1.5) h.
